Test results published in patent US20150290226A1, “NOVEL LYOPHILIZED COMPOSITIONS OF CYCLOPHOSPHAMIDE” (LEIUTIS PHARMACEUTICALS PVT. LTD., priority 2012, published 2015).
Several values for one entry are separate records, joined by “and”; a condition that tells them apart may be missing. Identical values can stand only once. Like-named read-outs stand apart in the source and are kept apart here.

Key:
[1] = Water activity of drug substance and lyophilizate; assay type: physicochemical; conditions: Sample numbers I, II, III, listed as Drug substance (Monohydrate Form)
Excerpt: (§1) The moisture content and water activity of the drug substance as well as the lyophilizate was checked to ensure the retention of the crystalline monohydrate form of the drug substance in the Lyophilizate. Water activity instruments measure the amount of free (sometimes referred to as unbound or active) water present in the sample and KF titration measures the total water in a sample.

[2] = Method: The solubility of Cyclophosphamide monohydrate in various solvents was checked. The quantity of solvent consumed for dissolving 100 mg of Cyclophosphamide monohydrate is given below: […]
[3] = Moisture content (KF titration) of drug substance and lyophilizate; assay type: physicochemical; conditions: Sample numbers I, II, III, listed as Drug substance (Monohydrate Form)
Excerpt: as §1

[4] = remark: listed apart in the source
Excerpt: The change of description of Cyclophosphamide monohydrate at various temperatures was studied by exposing the drug to different temperatures under constant vacuum and details are given in Tables 6 & 7: […]

[5] = Vacuum 1000 mtorr, +25° C. (5 hrs)
[6] = Vacuum 1000 mtorr, −2° C. (12 hrs)
[7] = Vacuum 1000 mtorr, −15° C. (19 hrs)
[8] = Vacuum 1000 mtorr, −25° C. (12 hrs)
[9] = Vacuum 1000 mtorr, −40° C. (5 hrs)

SMILES: Cl.[O-][P+]1(N(CCCl)CCCl)NCCCO1 (stereo not drawn) [Cyclophosphamide monohydrate, 2-[bis(2-chloroethyl)amino]tetrahydro-2H-1,3,2-oxazaphosphorine 2-oxide monohydrate]
- Water Activity (aw) [1]: 0.374 and 0.372 and 0.373
- quantity of solvent consumed for dissolving 100 mg ([2]; Acetone): 0.4 mL
- quantity of solvent consumed for dissolving 100 mg ([2]; Acetonitrile): 0.5 mL
- quantity of solvent consumed for dissolving 100 mg ([2]; Dimethyacetamide): 2.0 mL
- quantity of solvent consumed for dissolving 100 mg ([2]; Ethanol): 0.5 mL
- quantity of solvent consumed for dissolving 100 mg ([2]; Tertiary butyl alcohol): 0.5 mL
- quantity of solvent consumed for dissolving 100 mg ([2]; Water): 2.45 mL
- Moisture Content (%) [3]: 6.64% and 6.75% and 6.72%
- % Moisture content ([4]; Initial): 6.87%
- Observation for Description ([4]; Initial): Powder
- % Moisture content [4, 5]: 2.94%
- Observation for Description [4, 5]: Liquid
- % Moisture content [4, 6]: 4.52%
- Observation for Description [4, 6]: Sticky
- % Moisture content [4, 7]: 6.29%
- Observation for Description [4, 7]: Powder
- % Moisture content [4, 8]: 6.27%
- Observation for Description [4, 8]: Powder
- % Moisture content [4, 9]: 6.23%
- Observation for Description [4, 9]: Powder
- Description ([4]; −10 °C, 350 mtorr and 6 hours): Powder
- Moisture Content (%) ([4]; −10 °C, 350 mtorr and 6 hours): 7.56%
- Description ([4]; −15 °C, 350 mtorr and 12 hours): Powder
- Moisture Content (%) ([4]; −15 °C, 350 mtorr and 12 hours): 6.99%
- Description ([4]; −25 °C, 150 mtorr and 6 hours): Powder
- Moisture Content (%) ([4]; −25 °C, 150 mtorr and 6 hours): 6.87%
- Description ([4]; −25 °C, 150 mtorr and 15 hours): Sticky Mass
- Moisture Content (%) ([4]; −25 °C, 150 mtorr and 15 hours): 4.55%
- Description ([4]; −25 °C, 280 mtorr and 12 hours): Powder
- Moisture Content (%) ([4]; −25 °C, 280 mtorr and 12 hours): 6.51%
